These results are taken from patent US6362212B1, “Oxime derivative and bactericide containing the same as active ingredient” (Shionogi & Company, Ltd., priority 1994, dated 2002).

Holding throughout (type): in vivo
For test [1], the system named is Erysiphe graminis f. sp. tritici. As to the kind of experiment: Controlling effect on Erysiphe graminis f. sp. tritici by foliage application (pot experiment). The conditions noted are these: foliage spray on wheat (cv. NORIN No. 61) seedlings, infected area after 10 days in greenhouse at 20° C. Summed up:
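Wheat seedlings (cv. NORIN No. 61, 2-3 weeks old) sprayed with compound in DMF diluted in water with spreader, then inoculated with conidia 24 hours later. Kept in greenhouse at 20 °C for 10 days; percent control calculated from infected leaf area.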

In a further test the test system is Sphaerotheca fuliginea. Kind of test: Controlling effect on Sphaerotheca fuliginea by foliage application (pot experiment). The settings on record: foliage spray on cucumber (cv. TSUKUBASHIROIBO) first leaves, infected area after 10 days in greenhouse at 20° C. Summed up: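 First leaves of cucumber seedlings, 2-3 weeks old, were sprayed with compound (DMF solution diluted in water with spreader). They were inoculated 24 h later with a Sphaerotheca fuliginea conidia spray and kept 10 days at 20° C in a greenhouse. Percent control was calculated from infected leaf area.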

The next test has as its system Puccinia coronata. Kind of test: Controlling effect on Puccinia coronata by foliage application (pot experiment). The settings on record: foliage spray on oat (cv. PC-38) seedlings, infected area after 1 day moist chamber and 8 days greenhouse at 20° C. As for the experimental part:
The following Test Examples illustrate the effects of the fungicide of the present invention. (I. Controlling effects on various plant diseases by foliage application (pot experiment)) A test compound was dissolved in a small amount of N,N-dimethylformamide, and the solution was diluted to a given concentration with distilled water containing a spreader. Thus, a liquid sample to be tested was prepared. The liquid sample was sprayed to test plants, and 24 hours thereafter, pathogens were inoculated by the method described below. […] The seeds of oat (cv.: PC-38) were sown in plastic cups (each 9 cm in diameter), followed by cultivation for 2 to 3 weeks. The test compound in the form of a solution or suspension was sprayed to the seedlings. Spores of Puccinia coronata cultured on oat leaves were collected, diluted about 10-fold with talc, and sprayed to the test plants to inoculate the plants with the pathogen. After the inoculation, the plants were kept in a moist chamber at 20° C. for 1 day and then in a greenhouse at 20° C. for 8 days. The infected area on the leaf was observed, and the percent control was calculated.

In test [2] the test system is Pseudoperonospora cubensis. Kind of test: Controlling effect on Pseudoperonospora cubensis by foliage application (pot experiment). The settings on record: foliage spray on cucumber (var. TSUKUBASHIROIBO) first leaves, lesion area after 10 days in moist chamber at 20° C. The gist of the method:
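Cucumber plants grown 2–3 weeks were sprayed on first leaves with compound (DMF solution diluted in water with spreader); 24 h later, Pseudoperonospora cubensis zoosporangia suspension dropped on leaves. Plants held in moist chamber at 20° C for 10 days; lesion area observed and percent control calculated.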

A further test relates to Pyricularia oryzae. The conditions noted are these: foliage spray on rice seedlings (cv. […]), number of lesions six days after the inoculation.
For the next test, the system named is Botrytis cinerea. As to the kind of experiment: Controlling effect on Botrytis cinerea by foliage application (pot experiment). The conditions noted are these: foliage spray on cucumber (cv. TSUKUBASHIROIBO) first leaves, mycelial disks, lesion diameter after 3 days in moist chamber at 20° C. As for the experimental part: The following Test Examples illustrate the effects of the fungicide of the present invention. (I. Controlling effects on various plant diseases by foliage application (pot experiment)) A test compound was dissolved in a small amount of N,N-dimethylformamide, and the solution was diluted to a given concentration with distilled water containing a spreader. Thus, a liquid sample to be tested was prepared. The liquid sample was sprayed to test plants, and 24 hours thereafter, pathogens were inoculated by the method described below. […] The seeds of cucumber ([…]) were sown in plastic cups (each 9 cm in diameter), followed by cultivation for 2 to 3 weeks. The test compound in the form of a solution or suspension was sprayed to the surface of their first leaves, and mycelial disks (4 mm φ) of Botrytis cinerea cultured on the potato sucrose agar medium were put on the leaf surfaces to inoculate. the cucumber seedlings with the pathogen. The plants were kept in a moist chamber at 20° C. for 3 days. The diameter of the lesions on the leaves was measured and the percent control was calculated.

As for `CON=C(c1cnco1)c1ccccc1COc1ccccc1` (mixture of isomers) [compound 1721], in test [1], the “Controlling effect on ErYsiphe graminis f. sp. tritici by foliage application at 500 ppm (percent control)” value is reported as 90 percent control. Moreover, the “Controlling effect on Sphaerotheca fuliginea by foliage application at 500 ppm (percent control)” value in the test with Sphaerotheca fuliginea was 100 percent control. Besides, the “Controllng effect on Puccinia coronata by foliage application at 500 ppm (percent control)” value (“Controllng effect … (percent control)” for short) in the test on Puccinia coronata came out at 70 percent control. Besides, the “Controlling effect on Pseudoperonospora cubensis by foliage application at 500 ppm (percent control)” value in test [2] came out at 100 percent control.
Take `CON=C(c1nnco1)c1ccccc1COc1ccccc1` [compound 701]: the “Controlling effect on ErYsiphe graminis f. sp. tritici by foliage application at 500 ppm (percent control)” value in test [1] is reported as 70 percent control. The “Controlling effect on Sphaerotheca fuliginea by foliage application at 500 ppm (percent control)” value with Sphaerotheca fuliginea was 100 percent control. The “Controllng effect … (percent control)” value in the test on Puccinia coronata came to 97 percent control. Also, in test [2], the “Controlling effect on Pseudoperonospora cubensis by foliage application at 500 ppm (percent control)” value is reported as 100 percent control.
As to `CON=C(c1ccccc1COc1ccccc1C)c1nccn1C` (single isomer, unassigned) [112A], the “Controlling effect on ErYsiphe graminis f. sp. tritici by foliage application at 500 ppm (percent control)” value in test [1] is given as 100 percent control. Moreover, the “Controlling effect on PYricularia orYzae by foliage application at 500 ppm (percent control)” value in the test on Pyricularia oryzae stood at 97 percent control. Moreover, in the test on Sphaerotheca fuliginea, the “Controlling effect on Sphaerotheca fuliginea by foliage application at 500 ppm (percent control)” value turned out to be 100 percent control. Besides, in the test with Puccinia coronata, the “Controllng effect … (percent control)” value was found to be 100 percent control. Also, in test [2], the “Controlling effect on Pseudoperonospora cubensis by foliage application at 500 ppm (percent control)” value was 97 percent control.
Turning to `CON=C(c1nnco1)c1ccccc1COc1cccc(C(F)(F)F)c1` [compound 722], in test [1], the “Controlling effect on ErYsiphe graminis f. sp. tritici by foliage application at 500 ppm (percent control)” value amounted to 90 percent control. Besides, the “Controlling effect on PYricularia orYzae by foliage application at 500 ppm (percent control)” value in the test on Pyricularia oryzae worked out at 90 percent control. The “Controlling effect on Sphaerotheca fuliginea by foliage application at 500 ppm (percent control)” value in the test on Sphaerotheca fuliginea came to 100 percent control. The “Controllng effect … (percent control)” value with Puccinia coronata is 97 percent control. For the same compound, in test [2], the “Controlling effect on Pseudoperonospora cubensis by foliage application at 500 ppm (percent control)” value is given as 100 percent control.
For the compound `CON=C(C1=NCCN1C)c1ccccc1COc1ccccc1C` [compound 1112], the “Controlling effect on ErYsiphe graminis f. sp. tritici by foliage application at 500 ppm (percent control)” value in test [1] worked out at 90 percent control. Besides, in the test on Pyricularia oryzae, the “Controlling effect on PYricularia orYzae by foliage application at 500 ppm (percent control)” value is recorded as 97 percent control. Besides, the “Controlling effect on Sphaerotheca fuliginea by foliage application at 500 ppm (percent control)” value in the test with Sphaerotheca fuliginea came to 100 percent control. For the same compound, the “Controllng effect … (percent control)” value in the test with Puccinia coronata came out at 70 percent control.
On to `CON=C(c1cc(C)no1)c1ccccc1COc1ccccc1C` (single isomer, unassigned) [612A], for which the “Controlling effect on ErYsiphe graminis f. sp. tritici by foliage application at 500 ppm (percent control)” value in test [1] amounted to 100 percent control. Besides, the “Controlling effect on PYricularia orYzae by foliage application at 500 ppm (percent control)” value with Pyricularia oryzae is listed as 90 percent control. Moreover, the “Controlling effect on Sphaerotheca fuliginea by foliage application at 500 ppm (percent control)” value in the test with Sphaerotheca fuliginea was determined as 97 percent control. The “Controllng effect … (percent control)” value in the test on Puccinia coronata amounted to 97 percent control. Besides, the “Controlling effect on Pseudoperonospora cubensis by foliage application at 500 ppm (percent control)” value in test [2] is on record as 100 percent control.
For the compound `CON=C(C1=NOCC1)c1ccccc1COc1cc(C)ccc1C` (mixture of isomers) [compound 1236], the “Controlling effect on ErYsiphe graminis f. sp. tritici by foliage application at 500 ppm (percent control)” value in test [1] was 90 percent control. Moreover, the “Controlling effect on PYricularia orYzae by foliage application at 500 ppm (percent control)” value with Pyricularia oryzae is given as 97 percent control. Further, in the test with Sphaerotheca fuliginea, the “Controlling effect on Sphaerotheca fuliginea by foliage application at 500 ppm (percent control)” value is 100 percent control. The “Controllng effect … (percent control)” value with Puccinia coronata is 97 percent control.
Consider `CON=C(c1cc(C)on1)c1ccccc1COc1cc(C)ccc1C` (mixture of isomers) [Compound No. 436], for which the “Controlling effect on ErYsiphe graminis f. sp. tritici by foliage application at 500 ppm (percent control)” value in test [1] worked out at 90 percent control. Also, the “Controlling effect on PYricularia orYzae by foliage application at 500 ppm (percent control)” value with Pyricularia oryzae is listed as 70 percent control. Further, the “Controlling effect on Sphaerotheca fuliginea by foliage application at 500 ppm (percent control)” value in the test on Sphaerotheca fuliginea amounted to 100 percent control. Moreover, in the test on Puccinia coronata, the “Controllng effect … (percent control)” value was 90 percent control.
For `CON=C(c1ccccc1COc1ccc(-c2ccccc2)cc1)c1nccn1C` (single isomer, unassigned) [144A], the “Controlling effect on Sphaerotheca fuliginea by foliage application at 500 ppm (percent control)” value in the test with Sphaerotheca fuliginea came to 100 percent control. Further, the “Controlling effect on Pseudoperonospora cubensis by foliage application at 500 ppm (percent control)” value in test [2] is on record as 100 percent control. Moreover, in the test with Botrytis cinerea, the “Controlling effect on Botrytis cinerea by foliage application at 500 ppm (percent control)” value was 70 percent control.
For `CON=C(c1ncon1)c1ccccc1COc1ccccc1` [compound 801], the “Controlling effect on ErYsiphe graminis f. sp. tritici by foliage application at 500 ppm (percent control)” value in test [1] stood at 90 percent control. In the test on Pyricularia oryzae, the “Controlling effect on PYricularia orYzae by foliage application at 500 ppm (percent control)” value is 70 percent control. Besides, in the test with Sphaerotheca fuliginea, the “Controlling effect on Sphaerotheca fuliginea by foliage application at 500 ppm (percent control)” value is 100 percent control. The “Controllng effect … (percent control)” value in the test on Puccinia coronata came to 97 percent control. In addition, in test [2], the “Controlling effect on Pseudoperonospora cubensis by foliage application at 500 ppm (percent control)” value was 100 percent control.
As for `CON=C(c1ccccc1COc1ccc(Cl)cc1Cl)c1nccn1C` (single isomer, unassigned) [130A], the “Controlling effect on Sphaerotheca fuliginea by foliage application at 500 ppm (percent control)” value in the test on Sphaerotheca fuliginea came out at 100 percent control. For the same compound, the “Controlling effect on Pseudoperonospora cubensis by foliage application at 500 ppm (percent control)” value in test [2] is given as 100 percent control. Further, the “Controlling effect on Botrytis cinerea by foliage application at 500 ppm (percent control)” value with Botrytis cinerea is recorded as 70 percent control.
As for `CON=C(c1ccno1)c1ccccc1COc1cc(C)ccc1C` (single isomer, unassigned) [536B], the “Controlling effect on ErYsiphe graminis f. sp. tritici by foliage application at 500 ppm (percent control)” value in test [1] is 100 percent control. In addition, the “Controlling effect on PYricularia orYzae by foliage application at 500 ppm (percent control)” value in the test with Pyricularia oryzae came to 70 percent control. Also, the “Controlling effect on Sphaerotheca fuliginea by foliage application at 500 ppm (percent control)” value with Sphaerotheca fuliginea came out at 90 percent control. Also, the “Controllng effect … (percent control)” value in the test with Puccinia coronata is reported as 97 percent control. For the same compound, the “Controlling effect on Pseudoperonospora cubensis by foliage application at 500 ppm (percent control)” value in test [2] is given as 100 percent control.
As to `CON=C(C1=NCCO1)c1ccccc1COc1cc(C)ccc1C` [compound 1328], the “Controlling effect on ErYsiphe graminis f. sp. tritici by foliage application at 500 ppm (percent control)” value in test [1] is on record as 90 percent control. In the test on Pyricularia oryzae, the “Controlling effect on PYricularia orYzae by foliage application at 500 ppm (percent control)” value was found to be 90 percent control. Further, in the test on Sphaerotheca fuliginea, the “Controlling effect on Sphaerotheca fuliginea by foliage application at 500 ppm (percent control)” value stood at 100 percent control. Moreover, the “Controllng effect … (percent control)” value in the test on Puccinia coronata is 70 percent control.
For the compound `CON=C(c1nnco1)c1ccccc1COc1ccccc1C` [Compound No. 712], the “Controlling effect on ErYsiphe graminis f. sp. tritici by foliage application at 500 ppm (percent control)” value in test [1] is reported as 100 percent control. For the same compound, the “Controlling effect on PYricularia orYzae by foliage application at 500 ppm (percent control)” value in the test on Pyricularia oryzae is listed as 90 percent control. Also, the “Controlling effect on Sphaerotheca fuliginea by foliage application at 500 ppm (percent control)” value in the test with Sphaerotheca fuliginea was determined as 100 percent control. Further, the “Controllng effect … (percent control)” value with Puccinia coronata is listed as 100 percent control.
As for `CON=C(c1ccccc1COc1cc(C)ccc1C)c1nccn1C` (single isomer, unassigned) [136B], the “Controlling effect on ErYsiphe graminis f. sp. tritici by foliage application at 500 ppm (percent control)” value in test [1] is given as 70 percent control. Besides, the “Controlling effect on PYricularia orYzae by foliage application at 500 ppm (percent control)” value in the test on Pyricularia oryzae stood at 70 percent control. Also, in the test with Sphaerotheca fuliginea, the “Controlling effect on Sphaerotheca fuliginea by foliage application at 500 ppm (percent control)” value worked out at 100 percent control. In addition, the “Controllng effect … (percent control)” value with Puccinia coronata came to 97 percent control.
